Earlier results as cited in patent US6858744B2, “Dihydoxyhexanoic acid derivatives, their intermediates, and methods of making” (Pfizer Inc., priority 2002, dated 2005).

**Q.** Which pKa does the source give for `O=C(O)C(F)(F)F` [trifluoro-acetic acid] here?
**A.** 0.3
